Results on one compound are retold here after patent publication US20090221538A1, “METHODS OF TREATING MULTIPLE SCLEROSIS BY ADMINISTERING PULSE DOSE CALCITRIOL” (priority 2008, published 2009).

One data set concerns MS. As to conditions: daily calcitriol treatments, cited from earlier work.
A further data set relates to EAE. As to conditions: mouse, in vivo; cited from earlier work.
Data set [1] in a line: Spinal cord 1,25-(OH)2D3 extraction and radioimmunoassay. It is filed as in vivo, mouse. The note with it: 200 ng 1,25-(OH)2D3 pulse dose plus vitamin D3 supplementation; end of the study. The procedure: The vitamin D3 and 1,25-(OH)2D3 were obtained from Sigma Chemical Co. The vitamin D3 was dissolved in safflower oil and stored in the dark at 5° C. The 1,25-(OH)2D3 was dissolved in 100% ethanol (1 mg/mL) and stored in the dark under nitrogen gas at −20° C. The concentration of 1,25-(OH)2D3 was determined by spectral analysis. Animals with stage 2.3±0.3 were randomized into treatment groups. The details of the treatments are given in the figure legends and table footnotes. The synthetic diet used in some experiments was formulated to contain all essential nutrients except vitamin D3 and was prepared exactly as we described (Spach and Hayes, 2005, J. Immunol. 175:4119-4126). For experiments using supplementary vitamin D3, the placebo group was fed the synthetic diet ad libidum without added vitamin D3, whereas the vitamin D3-supplemented group was fed the synthetic diet ad libidum with vitamin D3 added in an amount to provide 1 μg/d, calculated based on a daily measured consumption of 4.0 g dry weight of diet per mouse. Fresh synthetic diet was provided three times per week. At several times during the study, mice were weighed and blood samples were obtained from the tail vein. At the conclusion of the study, the mice were euthanized, a blood sample was obtained, perfusion was done, and the spinal cords and optic nerves were removed. […]

A further data set concerns splenocytes. The experiment in a line: Splenocyte staining and FACS analysis after pulse dose. Type of data set: in vivo, mouse. The protocol:
For flow cytometric analysis, splenocytes were dissociated into ice-cold Hank's balanced salt solution with HEPES buffer, and RBC were depleted. Duplicate samples (10^6 cells/sample) were stained (30-45 min on ice) with optimal amounts of the mAb conjugates in staining buffer (PBS pH 7.3 with 5% heat-inactivated FBS and 0.1% NaN3). Reference samples stained with single-color mAb served as controls to select fluorescence gates and flow cytometer compensation. The fluorescent mAb conjugates used for this analysis were FITC-labeled mAb to CD4 (clone L3T4) and APC-labeled mAb to CD11b (clone Macla) from Southern Biotechnology, and PE-labeled mAb to CD8 (clone alpha) and biotin-labeled mAb to CD45R (B220) from Invitrogen. PerCP-Cy5.5 was from BD/Pharmingan. Stained samples were analyzed on a FACScalibur™ using CELLQuest™ software (BD Biosciences, Franklin Lakes, N.J.).
On the technique in general: A flow cytometer gives signals particle by particle.

[2] abbreviates: splenocytes 14 days after a 175 ng pulse dose, no significant differences from normal control mice.

Entries after “also recorded” stand apart in the source; their conditions may differ.

For the compound `C=C1/C(=C\C=C2/CCC[C@]3(C)[C@@H]([C@H](C)CCCC(C)(C)O)CC[C@@H]23)C[C@@H](O)C[C@@H]1O` [1,25-(OH)2D3, 1,25-dihydroxy vitamin D3], in the data set with MS, the MS progression entry is reported as “completely inhibited” and the “patients who withdrew from the trial with symptomatic hypercalcemia” value is listed as 2 of the 15. Moreover, the “MS relapse rate (average)” value in the data set with MS (decreased from 1.0/yr) is listed as 0.2 /yr. In the data set with EAE, the EAE disease induction result was “strongly inhibited”, the EAE progression result is “prevented progression” and the “established EAE disease” value is recorded as “reversed established disease”. The “1,25-(OH)3D3 in the spinal cord” value in data set [1] was 18.8 ± 6.6 pmol/mL. For the same compound, the “numbers of splenocytes recovered” value in the data set on splenocytes (14 days after a 175 ng pulse dose, no significant differences from normal control mice) is 43±9 million cells. The “depletion of splenic lymphocytes and monocytes / immunodeficient state” value with splenocytes (B10.PL mice with EAE, 175 ng pulse dose, two weeks post treatment) is recorded as “did deplete; also recorded: did not result in an immunodeficient state”. In addition, in the data set on splenocytes (setting [2]), the “proportion of B220+ B lymphocytes” value stood at 63±3%, the “proportion of CD4+ T lymphocytes” value came out at 18±1%, the “proportion of CD8+ T lymphocytes” value is on record as 11±1% and the “proportion of CD11b+ monocytes” value was found to be 18±2%.
